Patent US20020049173A1, “Alteration of cellular behavior by antisense modulation of mRNA processing” (priority 1999, published 2002)
In the oligonucleotide strings, read from the 5' end, every base follows the letter of its sugar. An asterisk marks phosphorothioate; unmarked linkages are phosphodiester. Other units and linkages are bracketed, terminal groups are in braces. A string of capitals states the bases alone. e = 2'-O-(2-methoxyethyl) (MOE); [5mC] = 5-methylcytosine

system: murine IL-5 receptor α mRNA, membrane form; test: Membrane IL-5 receptor α mRNA by Northern blot in BCL1 cells; assay type: cell-based, mouse; details: 10 μM dose; exon-exon boundary oligonucleotides
Excerpt: (§1) Murine BCL1 cells were chosen for screening antisense oligonucleotides targeted to murine IL-5 receptor α. These are B-cell leukemia cells derived from a spontaneously arising tumor of BALB/c origin, and proliferate in response to murine or human IL-5. This is a CD5+line which resembles a subset of human chronic lymphocytic leukemia tumors and secretes IgM upon lipopolysaccharide stimulation. Cells were obtained from the American Type Culture Collection and cultured in RPMI 1640 medium supplemented with 10% heat-inactivated fetal bovine serum (Sigma Chemical Co., St. Louis, Mo.), 10 mM Hepes, pH 7.2, 50 μM 2-ME, 2 mM L-glutamine, 100 U/ml penicillin and 100 μg/ml streptomycin (Gibco, Grand Island, N.Y.).
(§2) The effect of these compounds on both membrane and soluble forms of murine IL-5 receptor α were measured and are shown in Table 1B. Oligonucleotides were screened in BCL1 cells at a dose of 10 μM and IL-5 receptor α mRNA was measured by Northern blot. Percent inhibition is compared to untreated (no oligo) control.
(§3) Total BCL1 cellular RNA was isolated using the RNeasy™ kit (Qiagen, Santa Clara Calif.) . Northern blotting was performed using standard methods. The cDNA probes were generated from oligonucleotides matching the exon sequences of either exons 2, 8, 9 or 10. Signals were quantitated using a Molecular Dynamics PhosphorImager.

Substance | % INHIB'N MEMBRANE IL-5 RECEPTOR [%]
21847 (eG*eT*eT*eT*eT*eT*e[5mC]*e[5mC]*eT*eT*e[5mC]*eT*eG*eA*eA*eT*eG*eT*eG*eA; antisense) [compound 21847] | 23
21849 (e[5mC]*eT*eT*eT*e[5mC]*e[5mC]*eT*eT*eT*e[5mC]*e[5mC]*e[5mC]*eA*e[5mC]*eA*eT*eA*eA*eA*eT) [compound 21849] | 70
21851 (eT*eA*eA*eA*eT*eG*eA*e[5mC]*eA*e[5mC]*eA*e[5mC]*eT*e[5mC]*eT*eG*e[5mC]*eA*eG*eA; antisense) [compound 21851] | 61
21853 (eT*eA*eA*eA*eT*eG*eA*e[5mC]*eA*e[5mC]*e[5mC]*e[5mC]*eA*e[5mC]*eA*eT*eA*eA*eA*eT; antisense) [compound 21853] | 14
21855 (eT*e[5mC]*eG*eA*eA*eG*eG*eT*eT*eT*e[5mC]*e[5mC]*eA*e[5mC]*eA*eT*eA*eA*eA*eT) [compound 21855] | 14

same assay, conditions: BCL1 cells, 10 μM, 24 hours; uniform 2′-MOE

Substance | % control membrane IL-5 Rα [%] | % inhib'n membrane IL-5 Rα [%]
21750 (eG*eA*e[5mC]*eT*eT*e[5mC]*e[5mC]*eT*eT*eT*e[5mC]*e[5mC]*eT*eT*eT*e[5mC]*e[5mC]*eT*eG*eG) [compound 21750] | 8 | 92
21751 (e[5mC]*eA*eA*eG*eG*eA*e[5mC]*eT*eT*e[5mC]*e[5mC]*eT*eT*eT*e[5mC]*e[5mC]*eT*eT*eT*e[5mC]; splice-switching) [compound 21751] | 9 | 91
21752 (eG*e[5mC]*e[5mC]*eA*eT*eT*e[5mC]*eT*eA*e[5mC]*e[5mC]*eA*eA*eG*eG*eA*e[5mC]*eT*eT*e[5mC]) [compound 21752] | 6 | –
21753 (eA*e[5mC]*eA*eA*eT*eG*eA*eG*eA*eT*eG*e[5mC]*e[5mC]*eA*eT*eT*e[5mC]*eT*eA*e[5mC]; splice-switching) [compound 21753] | 6 | 94
21754 (eT*eG*eT*eT*eG*eG*eG*eA*eG*e[5mC]*eA*e[5mC]*eA*eA*eT*eG*eA*eG*eA*eT; splice-switching) [compound 21754] | 8 | 92
21755 (eA*eG*e[5mC]*eA*eG*eG*e[5mC]*eA*eG*e[5mC]*eT*eG*eT*eT*eG*eG*eG*eA*eG*e[5mC]; splice-switching) [compound 21755] | 16 | 84
21756 (eA*eA*e[5mC]*eA*eA*eG*eA*e[5mC]*eG*eA*eA*eG*e[5mC]*eA*eG*eG*e[5mC]*eA*eG*e[5mC]; splice-switching) [compound 21756] | 6 | 94

system: murine IL-5 receptor α mRNA, soluble form; test: Soluble IL-5 receptor α mRNA by Northern blot in BCL1 cells; assay type: cell-based, mouse; details: 10 μM dose; exon-exon boundary oligonucleotides
Excerpt: as §1, §2, §3

Substance | % INHIB'N SOLUBLE IL-5 RECEPTOR [%]
21847 (eG*eT*eT*eT*eT*eT*e[5mC]*e[5mC]*eT*eT*e[5mC]*eT*eG*eA*eA*eT*eG*eT*eG*eA; antisense) [compound 21847] | 20
21849 (e[5mC]*eT*eT*eT*e[5mC]*e[5mC]*eT*eT*eT*e[5mC]*e[5mC]*e[5mC]*eA*e[5mC]*eA*eT*eA*eA*eA*eT) [compound 21849] | 5
21851 (eT*eA*eA*eA*eT*eG*eA*e[5mC]*eA*e[5mC]*eA*e[5mC]*eT*e[5mC]*eT*eG*e[5mC]*eA*eG*eA; antisense) [compound 21851] | 0
21853 (eT*eA*eA*eA*eT*eG*eA*e[5mC]*eA*e[5mC]*e[5mC]*e[5mC]*eA*e[5mC]*eA*eT*eA*eA*eA*eT; antisense) [compound 21853] | 45
21855 (eT*e[5mC]*eG*eA*eA*eG*eG*eT*eT*eT*e[5mC]*e[5mC]*eA*e[5mC]*eA*eT*eA*eA*eA*eT) [compound 21855] | 25

same assay, conditions: BCL1 cells, 10 μM, 24 hours; uniform 2′-MOE

Substance | % control soluble IL-5 Rα [%]
21750 (eG*eA*e[5mC]*eT*eT*e[5mC]*e[5mC]*eT*eT*eT*e[5mC]*e[5mC]*eT*eT*eT*e[5mC]*e[5mC]*eT*eG*eG) [compound 21750] | 197
21751 (e[5mC]*eA*eA*eG*eG*eA*e[5mC]*eT*eT*e[5mC]*e[5mC]*eT*eT*eT*e[5mC]*e[5mC]*eT*eT*eT*e[5mC]; splice-switching) [compound 21751] | 191
21752 (eG*e[5mC]*e[5mC]*eA*eT*eT*e[5mC]*eT*eA*e[5mC]*e[5mC]*eA*eA*eG*eG*eA*e[5mC]*eT*eT*e[5mC]) [compound 21752] | 194
21753 (eA*e[5mC]*eA*eA*eT*eG*eA*eG*eA*eT*eG*e[5mC]*e[5mC]*eA*eT*eT*e[5mC]*eT*eA*e[5mC]; splice-switching) [compound 21753] | 175
21754 (eT*eG*eT*eT*eG*eG*eG*eA*eG*e[5mC]*eA*e[5mC]*eA*eA*eT*eG*eA*eG*eA*eT; splice-switching) [compound 21754] | 184
21755 (eA*eG*e[5mC]*eA*eG*eG*e[5mC]*eA*eG*e[5mC]*eT*eG*eT*eT*eG*eG*eG*eA*eG*e[5mC]; splice-switching) [compound 21755] | 181
21756 (eA*eA*e[5mC]*eA*eA*eG*eA*e[5mC]*eG*eA*eA*eG*e[5mC]*eA*eG*eG*e[5mC]*eA*eG*e[5mC]; splice-switching) [compound 21756] | 166
